Experimental data reported in patent US9289412B2, “Role of limonoid compounds as neuroprotective agents” (The Johns Hopkins University, priority 2006, dated 2016).

tested on: rat mixed hippocampal cultures; assay: 3-NP neurotoxicity assay, MTT viability, rat mixed hippocampal cultures; format: cell-based; conditions: Rattus norvegicus, 18 h, read-out: % Protection vs 3-NP
Protocol: For example, a cell viability assay can be used in a preliminary screen on a large series of compounds each of which is tested at a fixed concentration. In some embodiments, mixed hippocampal cell cultures are prepared as described in, e.g., Haughey et al. (1999), J Neurochem, 73(4):1363-1374, and Haughey et al (2004), J Neurosci, 24(1):257-268. Subsequently, the cultures are pretreated for one hour in the presence of a candidate neuroprotective agent and then incubated with a cytotoxic agent for about 18 hours. Examples of cytotoxic agents include, but are not limited to, oxidative stressors (e.g., 3-nitropropionic acid (3-NP) or H2O2), excitatory amino acids (e.g., kainate), or neurotoxic proteins (e.g., Hiv Tat, or Aβ peptides). […] The level of protection (“percent protection”) provided by the test compound at a given test concentration in vitro can be expressed as: […]
A variety of methods for determining cell viability may be used. In some embodiments, cell viability is assessed based on the “MTT” assay method described in Mosmann (1983), J Immunol Methods, 65(1-2):55-63, or a variant thereof. This assay is based on the ability of a mitochondrial dehydrogenase enzyme from viable cells to cleave the tetrazolium rings of the pale yellow MTT and form dark blue formazan crystals, which are trapped in cells and readily quantified by ELISA spectrophotometry.
We sought to evaluate the protective efficacy of a number of modified terpenoid compounds against the against many different neurotoxins, ranging from the chemotoxic 6-OHDA, NMDA, 3-nitropropionic acid (3-NP), and viral proteins such as Tat and gp120. Thus, we established an in vitro neuroprotection assay using rat mixed hippocampal cultures, in which we evaluated the protective efficacy of neuroprotective compounds disclosed herein. The oxidative stressor 3-NP was used to elicit toxicity in the rat hippocampal cultures to mimic the oxidative damage, reactive oxygen species production and ensuing neurodegeneration resulting from HIV infection. Another measure of neurotoxicity which results from HIV infection was evaluated by exposure of the hippocampal cultures to HIV-1 Tat (Li et al (2005), Neurotox Res, 8(1-2): 119-134).
Rat mixed hippocamal neuronal cultures were generated from freshly dissected rat hippocampi (embryonic day 18) in neurobasal media containing 5% fetal bovine serum and 2% B27 supplement. The cells were plated into 96 well plates at a density of 4×10^5 cells/mL and routinely used on days 11-14 following culturing. Cell viability was assessed with MTT [3-(4,5-dimethylthiazol-2-yl)-2,5-diphenyltetrazolium bromide] assay. The MTT assay is based on the ability of a mitochondrial dehydrogenase enzyme from viable cells to cleave the tetrazolium rings of the pale yellow MTT and form dark blue formazan crystals. See Mosmann (1983), J Immunol Methods, 65(1-2):55-63. These crystals are largely impermeable to cell membranes, and thus accumulate within healthy cells. The resultant formazan precipitates are solubilized with DMSO and read on a multiwell scanning spectrophotometer (ELISA reader). The number of surviving cells is directly proportional to the level of the formazan product created.
Mixed hippocampal cultures were incubated with 3-NP (0.5-10 mM) for 18 hours and then assessed for viability using an MTT assay.
Cultures were preincubated with GPI 1046 or Resveratrol for one hour prior to an 18 hour exposure to 3 mM 3-NP. […] The same neuroprotective compounds were evaluated for efficacy against HIV-1 Tat protein toxicity using the same 1 hour preincubation protocol.

Row | Compound | inhibition at 10 µM
1 | C=C1[C@@H]([C@@]2(C)[C@@H](OC(C)=O)CC(=O)O[C@](C)(COC(C)=O)[C@@H]2C(=O)OC)[C@@H](OC=O)[C@H](OC(=O)[C@H](O)[C@H](C)CC)[C@@]2(C)[C@H](c3ccoc3)CC(=O)[C@]12O [PRIEURIANIN] | 6%

same assay, conditions: Rattus norvegicus; Table 2; vs 3 mM 3-NP 18 h, 1 h preincubation; test concentration (10 μM); read-out: % Protection

Row | Compound | inhibition at 10 µM
2 | CC1(C)C(=O)C=C[C@@]2(C)C1CC(=O)[C@@]1(C)C3=CC(=O)O[C@@H](c4ccoc4)[C@]3(C)CCC12 (some centres unmarked) [7-DEACETOXY-7- OXODEOXYGEDUNIN, 7-DEACETOXY-7-OXODEOXYGEDUNIN] | 24%
3 | CC(=O)O[C@@H]1CC2C(C)(C)C(=O)C3OC3[C@]2(C)C2CC[C@@]3(C)C(=CC(=O)O[C@@H]3c3ccoc3)[C@@]21C (stereo partly drawn) [1 (2)alpha- EPOXYDEOXYDIHYDRO- GEDUNIN, 1 (2)alpha-EPOXYDEOXYDIHYDROGEDUNIN] | 14%
4 | CC(=O)O[C@@H]1CC[C@@]2(C)C(C[C@@H](OC(C)=O)[C@@]3(C)C4=CC(=O)O[C@@H](c5ccoc5)[C@]4(C)CCC23)C1(C)C (stereo partly drawn) [3alpha- ACETOXYDIHYDRODEOXY- GEDUNIN, 3alpha-ACETOXYDIHYDRODEOXYGEDUNIN] | 151%
5 | C=C1C2CC[C@@]3(C)[C@H](c4ccoc4)OC(=O)C[C@]13O[C@H]1C[C@@H](OC(C)=O)C(C)(C)[C@H](CC(=O)OC)[C@@]21C [3beta-ACETOXYDEOXYANGOLENSIC ACID, METHYL ESTER] | 128%
6 | CC(=O)O[C@H]1CC[C@]2(C)[C@H]3CC[C@@]4(C)[C@H](c5ccoc5)OC(=O)[C@H]5O[C@]54[C@]3(C)[C@H](OC(C)=O)C[C@H]2C1(C)C [3beta- ACETOXYDEOXODIHYDRO- GEDUNIN, 3beta-ACETOXYDEOXODIHYDROGEDUNIN] | 39%
7 | C=C1C2CC[C@@]3(C)[C@H](c4ccoc4)OC(=O)C[C@]13O[C@H]1CC(=O)C(C)(C)[C@H](C(O)C(=O)OC)[C@@]21C (some centres unmarked) [6-HYDROXYANGOLENSIC ACID METHYL ESTER] | 26%

same assay, conditions: Rattus norvegicus; Table 3; 3 mM 3-NP 18 h, 1 h preincubation; test concentration (10 μM); read-out: % Protection vs 3-NP

Row | Compound | inhibition at 10 µM
8 | COC1=C[C@@H](C)[C@@H]2C[C@H]3OC(=O)C[C@H]4C(C)=C(OC)C(=O)[C@H]([C@@]2(C)C1=O)[C@@]34C [QUASSIN] | 8%
9 | COC(=O)C[C@H]1C(C)(C)C(=O)[C@@H]2CC3C4=CC(=O)O[C@@H](c5ccoc5)[C@]4(C)CC[C@@H]3[C@@]1(C)C2=O (some centres unmarked) [CARAPIN] | 18%
10 | CC1(C)C(=O)C=C[C@@]2(C)C1C[C@@H](O)[C@]1(C)C2CC[C@@]2(C)[C@H](c3ccoc3)OC(=O)[C@H]3O[C@]321 (some centres unmarked) [DEACETYLGEDUNIN] | 19%
11 | COC(=O)C[C@H]1C(C)(C)[C@@H](OC(C)=O)[C@@H]2CC3C4CC(=O)O[C@@H](c5ccoc5)[C@]4(C)CCC3[C@@]1(C)C2=O (some centres unmarked) [DIHYDROFISSINOLIDE] | 12%
12 | CC(=O)O[C@H]1CC[C@]2(C)[C@H]3CC[C@@]4(C)[C@H](c5ccoc5)OC(=O)[C@H]5O[C@]54[C@]3(C)[C@H](OC(C)=O)C[C@H]2C1(C)C [3beta- ACETOXYDEOXODIHYDRO- GEDUNIN, 3beta-ACETOXYDEOXODIHYDROGEDUNIN] | 39%
13 | C=C1C2CC[C@@]3(C)[C@H](c4ccoc4)OC(=O)C[C@]13O[C@H]1CC(=O)C(C)(C)[C@H](C(O)C(=O)OC)[C@@]21C (some centres unmarked) [6-HYDROXYANGOLENSIC ACID METHYL ESTER] | 26%

same assay, conditions: Table 2; vs 3 mM 3-NP 18 h, 1 h preincubation; test concentration (10 μM)

Row | Compound | % Protection
14 | CC(=O)OC1CC2C(C)(C)CCC[C@]2(C)C2CC[C@]3(C)C(=CC(=O)O[C@H]3c3ccoc3)[C@]12C (some centres unmarked) [DEOXODEOXYDIHYDRO- GEDUNIN, DEOXODEOXYDIHYDROGEDUNIN] | 77%
15 | CC1(C)C(=O)C=C[C@@]2(C)C1C[C@@H](O)[C@]1(C)C2CC[C@@]2(C)[C@H](c3ccoc3)OC(=O)[C@H]3O[C@]321 (some centres unmarked) [DEACETYLGEDUNIN] | 19%
16 | CC(=O)O[C@@H]1CC2C(C)(C)C3(CC[C@]2(C)C2CC[C@@]4(C)[C@H](c5ccoc5)OC(=O)C5OC54[C@@]21C)SCCS3 (some centres unmarked) [DIHYDROGEDUNIN ETHANEDITHIOKETAL] | 19%
17 | CC(=O)O[C@@H]1CC2C(C)(C)[C@H](O)C=C[C@]2(C)C2CC[C@@]3(C)[C@H](c4ccoc4)OC(=O)C4OC43[C@@]21C (some centres unmarked) [GEDUNOL] | 45%
18 | CC1(C)C(=O)[C@@H]2O[C@@H]2[C@@]2(C)C1C[C@@H](O)[C@]1(C)C2CC[C@@]2(C)[C@H](c3ccoc3)OC(=O)C3OC321 (stereo partly drawn) [1,2alpha- EPOXYDEACET[…], 1,2alpha-EPOXYDEACETOXYDIHYDROGEDUNIN] | 25%

same assay, conditions: Table 3; 3 mM 3-NP 18 h, 1 h preincubation; test concentration (10 μM)

Row | Compound | % Protection vs 3-NP
19 | COC(=O)C[C@H]1C(C)(C)C(=O)[C@@H]2CC3=C(CC[C@]4(C)C3=CC(=O)O[C@H]4c3ccoc3)[C@@]1(C)C2=O [CARAPIN-8(9)-ENE] | 38%
20 | KHAYANTHONE | 36%
